From patent publication US20260158009A1 (GENZYME CORPORATION, priority 2023, published 2026)

How the values were obtained:
[1] = target: T1, hRIPK1 (aa 1-375) fusion protein (Homo sapiens, UniProt Q13546); assay: ADP-Glo kinase assay: catalytic activity of RIPK1 (autophosphorylation, conversion of ATP to ADP); format: biochemical
T1 construct: hRIPK1 (aa 1-375) fusion protein
T1 sequence (Q13546 1-375): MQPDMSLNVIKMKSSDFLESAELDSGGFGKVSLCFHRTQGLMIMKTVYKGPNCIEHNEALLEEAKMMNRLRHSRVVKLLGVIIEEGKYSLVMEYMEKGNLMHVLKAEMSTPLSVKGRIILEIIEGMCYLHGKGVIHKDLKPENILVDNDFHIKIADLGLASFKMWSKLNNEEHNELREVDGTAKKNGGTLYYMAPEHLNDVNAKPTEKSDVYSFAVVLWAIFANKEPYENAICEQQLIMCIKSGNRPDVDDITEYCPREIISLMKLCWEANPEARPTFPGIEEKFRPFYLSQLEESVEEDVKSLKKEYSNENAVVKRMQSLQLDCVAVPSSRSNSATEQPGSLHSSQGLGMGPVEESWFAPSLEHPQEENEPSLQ
How it was run: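 hRIPK1 (aa 1-375) fusion protein (3.6 μg/ml final) was preincubated 30 min at rt with compound (33300-1.69 nM, 1% DMSO), then 50 μM ATP was added for 240 min at rt. ADP from autophosphorylation was measured by ADP-Glo luminescence and curves fitted by nonlinear regression.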

[2] = test system: U937 cells; assay: Cellular assay in U937 cells: activity of RIPK1 inhibitors on TNFα/zVAD.fmk-induced cell death (necroptosis), CellTiter 96 AQueous (MTS) readout; format: cell-based; conditions: Homo sapiens, U-937
How it was run: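 Necroptosis was measured by viable-cell MTS reduction (4 h, absorbance 490 nm) after overnight (18–24 h) 37° C culture. Cell suspensions of U937 cells carried TNFα (100 ng/ml) plus zVAD.fmk (50 μM) before compound was added. A 10-point curve (10 μM–0.26 nM or 1 μM–0.07 nM) was run in duplicate, normalised to the control lacking TNFα/zVAD.fmk.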

Row | Compound | IC50 [1] | IC50 [2]
1 | Cn1cncc1C[C@H]1CC[C@H](C(=O)N2OCC[C@H]2c2cc(F)cc(C#N)c2)CC1 [compound 167, trans-3-fluoro-5-[(3S)-2-[4-[(3-methylimidazol-4-yl)methyl]cyclohexanecarbonyl]isoxazolidin-3-yl]benzonitrile] | 104 nM | 100 nM
2 | Cn1cncc1C[C@H]1CC[C@H](C(=O)N2OCC[C@H]2c2cncc(C#N)c2)CC1 [compound 168, trans-5-[(3S)-2-[4-[(3-methylimidazol-4-yl)methyl]cyclohexanecarbonyl]isoxazolidin-3-yl]pyridine-3-carbonitrile] | 829 nM | 653 nM
3 | O=C([C@H]1CC[C@H](Cc2ccc(C3(O)COC3)cc2)CC1)N1OCC[C@H]1c1ccc(F)cc1 [compound 170, trans-[(3S)-3-(4-fluorophenyl)isoxazolidin-2-yl]-[4-[[4-(3-hydroxyoxetan-3-yl)phenyl]methyl]cyclohexyl]methanone] | 21 nM | 15 nM
4 | O=C([C@H]1CC[C@H](Cc2ccc(C3(O)COC3)cc2)CC1)N1OCC[C@H]1c1cc(F)cc(F)c1 [compound 171, trans-[(3S)-3-(3,5-difluorophenyl)isoxazolidin-2-yl]-[4-[[4-(3-hydroxyoxetan-3-yl)phenyl]methyl]cyclohexyl]methanone] | 19 nM | 6 nM
5 | CNC(=O)c1ccc(F)c(C[C@H]2CC[C@H](C(=O)N3OCC[C@H]3c3cc(F)cc(F)c3)CC2)c1 [compound 174, trans-3-[[4-[(3S)-3-(3,5-difluorophenyl)isoxazolidine-2-carbonyl]cyclohexyl]methyl]-4-fluoro-N-methyl-benzamide] | 19 nM | 4 nM
6 | Cc1ncc(F)cc1C[C@H]1CC[C@H](C(=O)N2OCC[C@H]2c2cncc(F)c2)CC1 [compound 178, trans-[4-[(5-fluoro-2-methyl-3-pyridyl)methyl]cyclohexyl]-[(3S)-3-(5-fluoro-3-pyridyl)isoxazolidin-2-yl]methanone] | 38 nM | 6 nM
7 | Cc1ncc(F)cc1C[C@H]1CC[C@H](C(=O)N2OCC[C@H]2c2ccc(F)cc2)CC1 [compound 179, trans-[4-[(5-fluoro-2-methyl-3-pyridyl)methyl]cyclohexyl]-[(3S)-3-(4-fluorophenyl)isoxazolidin-2-yl]methanone] | 32 nM | 5 nM
8 | Cc1ncc(F)cc1C[C@H]1CC[C@H](C(=O)N2OCC[C@H]2c2cnccn2)CC1 [compound 180, trans-[4-[(5-fluoro-2-methyl-3-pyridyl)methyl]cyclohexyl]-[(3S)-3-pyrazin-2-ylisoxazolidin-2-yl]methanone] | 32 nM | 11 nM
9 | Cc1ncc(F)cc1C[C@H]1CC[C@H](C(=O)N2OCC[C@H]2c2cc(F)cc(C#N)c2)CC1 [compound 181, trans-3-fluoro-5-[(3S)-2-[4-[(5-fluoro-2-methyl-3-pyridyl)methyl]cyclohexanecarbonyl]isoxazolidin-3-yl]benzonitrile] | 26 nM | 2 nM
10 | Cc1ncc(F)cc1C[C@H]1CC[C@H](C(=O)N2OCC[C@H]2c2cc(F)cc(F)c2)CC1 [compound 182, trans-[(3S)-3-(3,5-difluorophenyl)isoxazolidin-2-yl]-[4-[(5-fluoro-2-methyl-3-pyridyl)methyl]cyclohexyl]methanone] | 22 nM | 1 nM
11 | N#Cc1cncc([C@@H]2CCON2C(=O)[C@H]2CC[C@H](Cc3ccc(C4(O)COC4)cc3)CC2)c1 [compound 183, trans-5-[(3S)-2-[4-[[4-(3-hydroxyoxetan-3-yl)phenyl]methyl]cyclohexanecarbonyl]isoxazolidin-3-yl]pyridine-3-carbonitrile] | 45 nM | 23 nM
12 | CC1(Oc2cnc3ccn(C[C@H]4CC[C@H](C(=O)N5OCC[C@H]5c5cc(F)cc(C#N)c5)CC4)c3c2)CC1 [compound 184, trans-3-fluoro-5-[(3S)-2-[4-[[6-(1-methylcyclopropoxy)pyrrolo[3,2-b]pyridin-1-yl]methyl]cyclohexanecarbonyl]isoxazolidin-3-yl]benzonitrile] | 26 nM | 19 nM
13 | COc1cncc([C@@H]2CCON2C(=O)[C@H]2CC[C@H](Cn3ccc4ncc(C#N)cc43)CC2)n1 [compound 185, trans-1-[[4-[(3S)-3-(6-methoxypyrazin-2-yl)isoxazolidine-2-carbonyl]cyclohexyl]methyl]pyrrolo[3,2-b]pyridine-6-carbonitrile] | 32 nM | 34 nM

Second part, led by results:

Row | IC50 [1] | Compound | IC50 [2]
14 | 6 nM | CNC(=O)c1cc(F)cc(C[C@H]2CC[C@H](C(=O)N3OCC[C@H]3c3cncc(F)c3)CC2)c1 [compound 160, trans-3-fluoro-5-[[4-[(3S)-3-(5-fluoro-3-pyridyl)isoxazolidine-2-carbonyl]cyclohexyl]methyl]-N-methyl-benzamide] | 11 nM
15 | 4 nM | CNC(=O)c1cc(F)cc(C[C@H]2CC[C@H](C(=O)N3OCC[C@H]3c3cc(F)cc(F)c3)CC2)c1 [compound 161, trans-3-[[4-[(3S)-3-(3,5-difluorophenyl)isoxazolidine-2-carbonyl]cyclohexyl]methyl]-5-fluoro-N-methyl-benzamide] | 1 nM
16 | 4 nM | CNC(=O)c1cc(F)cc(C[C@H]2CC[C@H](C(=O)N3OCC[C@H]3c3cnccn3)CC2)c1 [compound 162, trans-3-fluoro-N-methyl-5-[[4-[(3S)-3-pyrazin-2-ylisoxazolidine-2-carbonyl]cyclohexyl]methyl]benzamide] | 15 nM
17 | 5 nM | CNC(=O)c1cc(F)cc(C[C@H]2CC[C@H](C(=O)N3OCC[C@H]3c3cncc(C#N)c3)CC2)c1 [compound 163, trans-3-[[4-[(3S)-3-(5-cyano-3-pyridyl)isoxazolidine-2-carbonyl]cyclohexyl]methyl]-5-fluoro-N-methyl-benzamide] | 10 nM
18 | 5 nM | CNC(=O)c1cc(F)cc(C[C@H]2CC[C@H](C(=O)N3OCC[C@H]3c3cc(F)cc(C#N)c3)CC2)c1 [compound 164, trans-3-[[4-[(3S)-3-(3-cyano-5-fluoro-phenyl)isoxazolidine-2-carbonyl]cyclohexyl]methyl]-5-fluoro-N-methyl-benzamide] | 7 nM
19 | 5 nM | CNC(=O)c1cc(F)cc(C[C@H]2CC[C@H](C(=O)N3OCC[C@H]3c3ccc(F)cc3)CC2)c1 [compound 165, trans-3-fluoro-5-[[4-[(3S)-3-(4-fluorophenyl)isoxazolidine-2-carbonyl]cyclohexyl]methyl]-N-methyl-benzamide] | 7 nM
20 | 8 nM | COc1cncc([C@@H]2CCON2C(=O)[C@H]2CC[C@H](Cc3ccc(C)c(C(N)=O)c3)CC2)n1 [compound 166, trans-5-[[4-[(3S)-3-(6-methoxypyrazin-2-yl)isoxazolidine-2-carbonyl]cyclohexyl]methyl]-2-methyl-benzamide] | 50 nM
21 | 19 nM | N#Cc1cc(F)cc([C@@H]2CCON2C(=O)[C@H]2CC[C@H](Cc3ccc(C4(O)COC4)cc3)CC2)c1 [compound 169, trans-3-fluoro-5-[(3S)-2-[4-[[4-(3-hydroxyoxetan-3-yl)phenyl]methyl]cyclohexanecarbonyl]isoxazolidin-3-yl]benzonitrile] | 44 nM
22 | 16 nM | CNC(=O)c1ccc(F)c(C[C@H]2CC[C@H](C(=O)N3OCC[C@H]3c3cncc(F)c3)CC2)c1 [compound 172, trans-4-fluoro-3-[[4-[(3S)-3-(5-fluoro-3-pyridyl)isoxazolidine-2-carbonyl]cyclohexyl]methyl]-N-methyl-benzamide] | 9 nM
23 | 18 nM | CNC(=O)c1ccc(F)c(C[C@H]2CC[C@H](C(=O)N3OCC[C@H]3c3ccc(F)cc3)CC2)c1 [compound 173, trans-4-fluoro-3-[[4-[(3S)-3-(4-fluorophenyl)isoxazolidine-2-carbonyl]cyclohexyl]methyl]-N-methyl-benzamide] | 17 nM
24 | 14 nM | CNC(=O)c1ccc(F)c(C[C@H]2CC[C@H](C(=O)N3OCC[C@H]3c3cnccn3)CC2)c1 [compound 175, trans-4-fluoro-N-methyl-3-[[4-[(3S)-3-pyrazin-2-ylisoxazolidine-2-carbonyl]cyclohexyl]methyl]benzamide] | 7 nM
25 | 13 nM | CNC(=O)c1ccc(F)c(C[C@H]2CC[C@H](C(=O)N3OCC[C@H]3c3cncc(C#N)c3)CC2)c1 [compound 176, trans-3-[[4-[(3S)-3-(5-cyano-3-pyridyl)isoxazolidine-2-carbonyl]cyclohexyl]methyl]-4-fluoro-N-methyl-benzamide] | 15 nM
26 | 11 nM | CNC(=O)c1ccc(F)c(C[C@H]2CC[C@H](C(=O)N3OCC[C@H]3c3cc(F)cc(C#N)c3)CC2)c1 [compound 177, trans-3-[[4-[(3S)-3-(3-cyano-5-fluoro-phenyl)isoxazolidine-2-carbonyl]cyclohexyl]methyl]-4-fluoro-N-methyl-benzamide] | 5 nM
